Measured values published in patent publication US6967196B1, “Sulfonamide compounds and uses thereof” (Bristol-Myers Squibb Company, priority 1999, dated 2005).
Counter-ions that a name gives are not always drawn. Like-named read-outs stand apart in the source and are kept apart here. Each block holds one molecule with its values, some of them ahead of it.

Tested on: amyloid β production in transfected H4 (human neuroglioma) cells stably expressing APP constructs
Assay: In vitro cell-based assay of inhibitors of amyloid β production (ELISA)
Details: amyloid β in medium by ELISA
Procedure, shortened: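 Test agents are screened at 10-100 μM for about 16 hours on cells stably expressing wild-type or variant APP. Secreted Aβ is measured by ELISA and compared with control-treated cells.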

[1] = transfected H4 cells stably expressing APP, approximately 16 hours incubation, read-out: ACTIVITY (IC50, inhibition of amyloid β production)
[2] = Homo sapiens, 16 h, transfected H4 cells stably expressing APP constructs, approximately 16 hours incubation, read-out: ACTIVITY (IC50, inhibition of amyloid β production)
[3] = Homo sapiens, 16 h, transfected H4 cells expressing APP, approximately 16 hours incubation, read-out: ACTIVITY (IC50, inhibition of amyloid β production)
[4] = Table B, transfected H4 cells stably expressing APP, approximately 16 hours incubation, read-out: ACTIVITY (inhibitory concentration IC50, inhibition of amyloid β production)
[5] = transfected H4 cells stably expressing APP constructs, approximately 16 hours incubation, read-out: ACTIVITY (IC50, inhibition of amyloid β production)
[6] = transfected H4 cells stably expressing APP, approx. 16 h incubation, read-out: ACTIVITY (IC50, inhibition of amyloid β production)
[7] = Homo sapiens, 16 h, transfected H4 cells stably expressing APP, approx. 16 h incubation, read-out: ACTIVITY (IC50, inhibition of amyloid β production)
[8] = transfected H4 cells stably expressing APP, approximately 16 hours incubation, Table B, read-out: ACTIVITY (IC50, inhibition of amyloid β production)

Molecule: N-{3-[2-(1-{[(4-chlorophenyl)sulfonyl]-2,5-difluoroanilino}ethyl)phenoxy]propyl}-2,3,4,5,6-pentafluoro-N-methylbenzamide [Example 828]
IC50 [1]: 100 to 500 nM

Molecule: N-{2-[2-(1-{[(4-chlorophenyl)sulfonyl]-2,5-difluoroanilino}ethyl)phenoxy]ethyl}-N-ethylacrylamide [Example 949]
IC50 [1]: > 500 nM

Molecule: C[N+]1(CCCOc2ccccc2CN(c2cc(Cl)ccc2Cl)S(=O)(=O)c2ccc(Cl)cc2)CCCCC1 [Example 1038, 1-{3-[2-((2,5-dichloro[(4-chlorophenyl)sulfonyl]anilino}methyl)phenoxy]propyl}-1-methylpiperidinium iodide]
IC50 [1]: > 500 nM

Molecule: O=S(=O)(c1ccc(Cl)cc1)N(Cc1cc(Cl)ccc1OCCCN1CCCCC1)c1ccccc1 [Example 230, 4-Chloro-N-{5-chloro-2-[3-(1-piperidinyl)propoxy]benzyl}-N-phenylbenzenesulfonamide Hydrochloride]
IC50 [4]: 25 to 50 nM

Molecule: CC(C)Oc1c(NCC[C@@H](C)N(c2cc(Cl)ccc2F)S(=O)(=O)c2ccc(Cl)cc2)c(=O)c1=O [Example 1127, 4-chloro-N-(5-chloro-2-fluorophenyl)-N-[3-(2-isopropoxy-3,4-dioxo-1-cyclobutenyl)amine-1(R)-methylpropyl]benzenesulfonamide]
IC50 [5]: 50 to 100 nM

Molecule: N-{3-[2-(1-{[(4-chlorophenyl)sulfonyl]-2,5-difluoroanilino}ethyl)phenoxy]propyl}-4-methoxy-N-methylbenzamide [Example 652]
IC50 [6]: 100 to 500 nM

Molecule: N-{3-[2-({[(4-chlorophenyl)sulfonyl]-2,5-difluoroanilino}methyl)phenoxy]propyl}-N-methyl-2-naphthamide [Example 810]
IC50 [1]: 100 to 500 nM

Molecule: O=S(=O)(/C=C/c1ccccc1)N(Cc1ccccc1OCCCN1CCCCC1)c1cc(Cl)ccc1Cl [Example 260, (E)-N-(2,5-dichlorophenyl)-2-phenyl-N-{2-[3-(1-piperidinyl)propoxy]benzyl}ethenesulfonamide hydrochloride]
IC50 [4]: 25 to 50 nM

Molecule: N-{3-[2-({[(4-chlorophenyl)sulfonyl]-2,5-difluoroanilino}methyl)phenoxy]propyl}-2,3,4-trifluoro-N-methylbenzamide [Example 864]
IC50 [1]: 100 to 500 nM

Molecule: 3,5-dichloro-N-{3-[2-(1-{[(4-chlorophenyl)sulfonyl]-2,5-difluoroanilino}ethyl)phenoxy]propyl}-N-methylbenzamide [Example 950]
IC50 [1]: > 500 nM

Molecule: C[C@H](c1ccccc1OCCCN(C)C(=O)c1cccnc1)N(c1cc(F)ccc1F)S(=O)(=O)c1ccc(Cl)cc1 [Example 363, N-{3-[2-((1R)-1-{[(4-chlorophenyl)sulfonyl]-2,5-difluoroanilino}ethyl)phenoxy]propyl}-N-methylnicotinamide Hydrochloride]
IC50 [8]: 50 to 100 nM

Molecule: CC([C@@H]1CCCN1CCS(C)(=O)=O)N(c1cc(Cl)ccc1Cl)S(=O)(=O)c1ccc(Cl)cc1 (some centres unmarked) [Example 1253]
IC50 [5]: 100 to 500 nM

Molecule: 2-((1R)-1-{[(4-chlorophenyl)sulfonyl]-2,5-difluoroanilino}ethyl)-5-fluorobenzyl 4-(trifluoromethyl)benzylcarbamate [Example 658]
IC50 [6]: 100 to 500 nM

Molecule: 2,2,2-trichloro-N-{3-[2-({[(4-chlorophenyl)sulfonyl]-2,5-difluoroanilino}ethyl)phenoxy]propyl(methyl)carbamate [Example 876]
IC50 [1]: 100 to 500 nM

Molecule: N-{3-[2-({[(4-chlorophenyl)sulfonyl]-2,5-difluoroanilino}methyl)phenoxy]propyl}-3-methoxy-N-methylbenzamide [Example 814]
IC50 [1]: 100 to 500 nM

Molecule: N-{2-[2-(1-{[(4-chlorophenyl)sulfonyl]-2,5-difluoroanilino}ethyl)phenoxy]ethyl}-3-cyclopentyl-N-ethylpropanamide [Example 857]
IC50 [1]: 100 to 500 nM

Molecule: 2,4-dichloro-N-{3-[2-(1-{[(4-chlorophenyl)sulfonyl]-2,5-difluoroanilino}ethyl)phenoxy]propyl}-N-methylbenzenesulfonamide [Example 647]
IC50 [6]: 100 to 500 nM

Molecule: 4-tert-butyl-N-{3-[2-(1-{[(4-chlorophenyl)sulfonyl]-2,5-difluoroanilino}ethyl)phenoxy]propyl}benzamide [Example 274]
IC50 [8]: 25 to 50 nM

Molecule: N-{3-[2-({[(4-chlorophenyl)sulfonyl]-2,5-difluoroanilino}methyl)phenoxy]propyl}-3,5-difluoro-N-methylbenzamide [Example 1000]
IC50 [1]: > 500 nM

Molecule: N-{3-[2-({[(4-chlorophenyl)sulfonyl]-2,5-difluoroanilino}methyl)phenoxy]propyl}-2-methoxy-N-methylbenzamide [Example 775]
IC50 [6]: 100 to 500 nM

The next lines start with the values.

IC50 [2]: > 10000 nM
Molecule: CN(C)CCCOc1ccccc1CN(c1ccccc1)S(=O)(=O)c1ccccc1[N+](=O)[O-] [Example 1084, N-{2-[3-(dimethylamino)propoxy]benzyl}-2-nitro-N-phenylbenzenesulfonamide]

IC50 [3]: > 500 nM
Molecule: C[C@H](C(=O)NCc1ccc2c(c1)OCO2)N(c1cc(Cl)ccc1F)S(=O)(=O)c1ccc(Cl)cc1 [Example 1319]

IC50 (Homo sapiens, 16 h, transfected H4 cells stably expressing APP, approximately 16 hours incubation, read-out: ACTIVITY (IC50, inhibition of amyloid β production)): > 500 nM
Molecule: C=CCOc1ccccc1CN(c1ccccc1)S(=O)(=O)c1ccc(Cl)cc1 [Example 1001, N-[2-(allyloxy)benzyl]-4-chloro-N-phenylbenzenesulfonamide]

IC50 [3]: 100 to 500 nM
Molecule: C[C@H](C(=O)NCc1cccnc1)N(c1cc(Cl)ccc1F)S(=O)(=O)c1ccc(Cl)cc1 [Example 1332]

IC50 [2]: ≤ 25 nM
Molecule: C[C@H](CCCS(=O)(=O)NC1CCS(=O)(=O)C1)N(c1cc(Cl)ccc1Cl)S(=O)(=O)c1ccc(Cl)cc1 (stereo partly drawn) [Example 1214, 4-chloro-N-[2,5-dichlorophenyl]-N-[4-[[(tetrahydro-1,1-dioxido-3-thienyl)amino]sulfonyl]-1(R)-methylbutyl]benzenesulfonamide]

IC50 [3]: > 10000 nM
Molecule: CCN(CCCn1ccnc1)C(=O)OC[C@@H](C)N(c1cc(Cl)ccc1CO)S(=O)(=O)c1ccc(Cl)cc1 [Example 1296]

IC50 [3]: > 500 nM
Molecule: C[C@H](C(=O)NCCc1ccccc1F)N(c1cc(Cl)ccc1F)S(=O)(=O)c1ccc(Cl)cc1 [Example 1359]

IC50 [3]: > 500 nM
Molecule: C[C@H](C(=O)N(CCN)c1ccccc1)N(c1cc(Cl)ccc1F)S(=O)(=O)c1ccc(Cl)cc1 [Example 1329]

IC50 [3]: > 500 nM
Molecule: C[C@H](C(=O)NCCCCc1ccccc1)N(c1cc(Cl)ccc1F)S(=O)(=O)c1ccc(Cl)cc1 [Example 1324]

IC50 [3]: 100 to 500 nM
Molecule: CC(C)C(CO)NC(=O)[C@@H](C)N(c1cc(Cl)ccc1F)S(=O)(=O)c1ccc(Cl)cc1 (some centres unmarked) [Example 1349]

IC50 [7]: 100 to 500 nM
Molecule: O=[N+]([O-])c1ccc([S+]([O-])CCCOc2ccccc2CN(c2cc(F)ccc2F)S(=O)(=O)c2ccc(Cl)cc2)cc1 (centres unmarked) [Example 689, 4-chloro-N-(2,5-difluorophenyl)-N-(2-{3-[(4-nitrophenyl)sulfinyl]propoxy}benzyl)benzenesulfonamide]

IC50 [7]: 100 to 500 nM
Molecule: CC(c1ccccc1OCCN(C)C(=O)NC(C)(C)C)N(c1cc(F)ccc1F)S(=O)(=O)c1ccc(Cl)cc1 (centres unmarked) [Example 724, N-[1-(2-{2-[[(tert-butylamino)carbonyl](methyl)amino]ethoxy}phenyl)ethyl]-4-chloro-N-(2,5-difluorophenyl)benzenesulfonamide]

IC50 [5]: > 10000 nM
Molecule: CCCCCCCCCCCCCCCCCC(=O)N(C)CCOc1ccccc1C(C)N(c1cc(F)ccc1F)S(=O)(=O)c1ccc(Cl)cc1 (centres unmarked) [Example 1098]

IC50 [6]: 100 to 500 nM
Molecule: Cc1cccc(C(=O)NCCCOc2ccccc2C(C)N(c2cc(F)ccc2F)S(=O)(=O)c2ccc(Cl)cc2)c1 (centres unmarked) [Example 687]

IC50 [7]: 100 to 500 nM
Molecule: O=S(=O)(c1ccc(Cl)cc1)N(Cc1ccccc1OCCC[S+]([O-])c1ccccc1)c1cc(F)ccc1F (centres unmarked) [Example 702, 4-chloro-N-(2,5-difluorophenyl)-N-{2-[3-(phenylsulfinyl)propoxy]benzyl}benzenesulfonamide]

IC50 [4]: ≤ 25 nM
Molecule: C[C@H](CCCC(=O)OC(C)(C)C)N(c1cc(Cl)ccc1Cl)S(=O)(=O)c1ccc(Cl)cc1 [Example 35, 1,1-dimethylethyl(5R)-5-[(2,5-dichlorophenyl)-[(4-chlorophenyl)sulfonyl]-amino]hexanoate]

IC50 [8]: 100 to 500 nM
Molecule: C[C@H](c1ccc(F)cc1CCCC(=O)NC1CCCCC1)N(c1cc(F)ccc1F)S(=O)(=O)c1ccc(Cl)cc1 [Example 496, 4-[2-((1R)-1-{[(4-chlorophenyl)sulfonyl]-2,5-difluoroanilino}ethyl)-5-fluorophenyl]-N-cyclohexylbutanamide]

IC50 [1]: > 500 nM
Molecule: O=S(=O)(c1ccc(F)cc1)n1c(-c2ccccc2OCCCN2CCCCC2)cc2ccccc21 [Example 1032, 2-{1-[(4-flurophenyl}sulfonyl]-1H-indol-2-yl}phenyl 3-(1-piperidinyl)propyl ether trifluoroacetate]
